5 compounds from patent US20140315889A1, “HYDROXAMATE DERIVATIVES FOR HDAC INHIBITOR, AND THE PHARMACEUTICAL COMPOSITION COMPRISING THEREOF” (CHONG KUN DANG PHARMACEUTICAL CORP., priority 2011, published 2014) can be followed below.

Holding throughout (type): biochemical
Assay [1] addresses HDAC4 (Homo sapiens, UniProt P56524). The assay is described as follows: HDAC enzyme activity test, HDAC4. The settings on record: Table 11, eleven HDAC isozymes; read-out: Inhibition ability (IC50) against HDAC4. As for the experimental part:
(§1) Then, 0.3 μg of enzyme and 10 μM of substrate per well were added, reacted at 30° C. for 60 minutes. Thereto, Fluor de Lys® Developer II (BML-KI176) was added and reacted for 30 minutes. […] From the data, the respective IC50 were calculated by GraphPad Prism 4.0 program.

The target in assay [2] is T1, Human recombinant HDAC1 (Homo sapiens, UniProt Q13547).
T1 construct: purchased Enzo Life Science Co. (named for the kit; assigned to the enzyme from the BML- catalogue prefix) BML-SE456
T1 sequence (Q13547 whole entry): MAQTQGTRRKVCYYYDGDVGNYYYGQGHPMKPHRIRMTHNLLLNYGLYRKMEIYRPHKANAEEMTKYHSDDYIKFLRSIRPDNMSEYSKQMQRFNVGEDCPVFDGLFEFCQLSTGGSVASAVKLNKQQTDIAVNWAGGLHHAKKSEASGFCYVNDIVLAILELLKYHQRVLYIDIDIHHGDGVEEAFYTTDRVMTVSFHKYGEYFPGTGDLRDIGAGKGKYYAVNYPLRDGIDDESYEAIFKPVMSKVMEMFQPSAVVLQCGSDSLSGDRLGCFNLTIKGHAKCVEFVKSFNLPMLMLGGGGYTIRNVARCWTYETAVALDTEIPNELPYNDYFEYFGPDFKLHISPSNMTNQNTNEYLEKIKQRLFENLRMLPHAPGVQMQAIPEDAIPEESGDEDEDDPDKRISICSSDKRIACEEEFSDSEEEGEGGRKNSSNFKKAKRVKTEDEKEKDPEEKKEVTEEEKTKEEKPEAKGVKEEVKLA
The assay is described as follows: HDAC enzyme activity test, HDAC1. On the procedure:
as §1

Assay [3] deals with HDAC3 (Homo sapiens, UniProt O15379). The assay is described as follows: HDAC enzyme activity test, HDAC3. The settings on record: Table 11, eleven HDAC isozymes; read-out: Inhibition ability (IC50) against HDAC3. As for the experimental part:
as §1

The target of assay [4] is HDAC5 (Homo sapiens, UniProt Q9UQL6). The assay is described as follows: HDAC enzyme activity test, HDAC5. As to conditions: Table 11, eleven HDAC isozymes; read-out: Inhibition ability (IC50) against HDAC5. On the procedure:
as §1

Assay [5] concerns the target T2, HDAC8 (Homo sapiens, UniProt Q9BY41).
T2 sequence (Q9BY41 1-377): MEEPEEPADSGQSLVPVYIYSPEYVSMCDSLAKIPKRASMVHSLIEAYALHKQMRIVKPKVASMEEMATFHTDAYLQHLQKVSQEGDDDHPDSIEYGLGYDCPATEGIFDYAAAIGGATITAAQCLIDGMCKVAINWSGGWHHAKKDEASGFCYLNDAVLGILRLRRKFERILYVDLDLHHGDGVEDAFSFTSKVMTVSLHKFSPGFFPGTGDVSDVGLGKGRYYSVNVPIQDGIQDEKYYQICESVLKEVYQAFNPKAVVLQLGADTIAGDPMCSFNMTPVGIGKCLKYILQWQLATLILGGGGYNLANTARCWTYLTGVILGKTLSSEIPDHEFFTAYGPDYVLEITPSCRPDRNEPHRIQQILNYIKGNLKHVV
Kind of assay: HDAC enzyme activity test, HDAC8. As to conditions: Table 11, eleven HDAC isozymes; read-out: Inhibition ability (IC50) against HDAC8. On the procedure: as §1

Assay [6] concerns the target HDAC2 (Homo sapiens, UniProt Q92769). Kind of assay: HDAC enzyme activity test, HDAC2. As to conditions: Table 11, eleven HDAC isozymes; read-out: Inhibition ability (IC50) against HDAC2. As for the experimental part:
as §1

In assay [7] the target is T3, human recombinant HDAC6 (Homo sapiens, UniProt Q9UBN7).
T3 construct: purchased Calibiochem Co. (so in the source) 382180
T3 sequence (Q9UBN7 1-1215): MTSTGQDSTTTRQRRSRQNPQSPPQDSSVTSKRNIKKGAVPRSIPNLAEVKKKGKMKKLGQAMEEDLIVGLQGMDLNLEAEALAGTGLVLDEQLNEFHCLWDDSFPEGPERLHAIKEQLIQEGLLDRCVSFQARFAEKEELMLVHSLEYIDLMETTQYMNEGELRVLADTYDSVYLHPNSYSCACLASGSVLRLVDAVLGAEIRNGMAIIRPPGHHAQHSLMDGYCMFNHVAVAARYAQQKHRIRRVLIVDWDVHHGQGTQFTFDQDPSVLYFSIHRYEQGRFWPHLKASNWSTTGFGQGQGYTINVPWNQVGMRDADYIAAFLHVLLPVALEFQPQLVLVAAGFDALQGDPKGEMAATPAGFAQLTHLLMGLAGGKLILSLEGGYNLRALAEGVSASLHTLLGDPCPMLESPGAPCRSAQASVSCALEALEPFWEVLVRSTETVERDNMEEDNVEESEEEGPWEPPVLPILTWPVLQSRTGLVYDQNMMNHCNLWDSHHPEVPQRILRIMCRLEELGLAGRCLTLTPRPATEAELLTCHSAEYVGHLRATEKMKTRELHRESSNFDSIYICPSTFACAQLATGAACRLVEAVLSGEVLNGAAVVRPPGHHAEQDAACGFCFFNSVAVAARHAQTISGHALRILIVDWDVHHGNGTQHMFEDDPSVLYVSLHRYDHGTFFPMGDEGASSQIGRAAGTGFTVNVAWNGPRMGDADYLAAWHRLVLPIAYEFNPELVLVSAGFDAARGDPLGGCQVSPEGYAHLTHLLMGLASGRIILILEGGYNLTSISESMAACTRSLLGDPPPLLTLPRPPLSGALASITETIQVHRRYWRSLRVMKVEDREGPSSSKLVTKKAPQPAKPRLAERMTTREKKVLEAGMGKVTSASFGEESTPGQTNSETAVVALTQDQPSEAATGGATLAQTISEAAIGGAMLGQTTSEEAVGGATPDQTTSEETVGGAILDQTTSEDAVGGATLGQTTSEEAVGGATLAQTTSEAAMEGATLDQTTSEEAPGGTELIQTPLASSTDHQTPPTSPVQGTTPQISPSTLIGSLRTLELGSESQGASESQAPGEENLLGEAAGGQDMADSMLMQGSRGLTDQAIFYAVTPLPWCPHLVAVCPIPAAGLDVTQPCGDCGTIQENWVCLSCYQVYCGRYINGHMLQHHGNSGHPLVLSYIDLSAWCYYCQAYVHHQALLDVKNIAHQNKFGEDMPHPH
The assay is described as follows: HDAC enzyme activity test, HDAC6. As to conditions: for Selectivity for HDAC6, HD1/HD6: ratio HDAC1 IC50 / HDAC6 IC50. On the procedure: as §1

[8] abbreviates: Table 11, eleven HDAC isozymes, read-out: Inhibition ability (IC50) against HDAC1.
Where [9] appears, read: Table 11, eleven HDAC isozymes, read-out: Inhibition ability (IC50) against HDAC6.
The mark [10] stands for this setting: Table 12, read-out: Inhibition ability (IC50) HDAC1.
[11] abbreviates: Table 12, read-out: Inhibition ability (IC50) HDAC6.

Where two headings read alike, the source gives them in different places.

Sequence of HDAC5 (Q9UQL6 whole entry, species assumed): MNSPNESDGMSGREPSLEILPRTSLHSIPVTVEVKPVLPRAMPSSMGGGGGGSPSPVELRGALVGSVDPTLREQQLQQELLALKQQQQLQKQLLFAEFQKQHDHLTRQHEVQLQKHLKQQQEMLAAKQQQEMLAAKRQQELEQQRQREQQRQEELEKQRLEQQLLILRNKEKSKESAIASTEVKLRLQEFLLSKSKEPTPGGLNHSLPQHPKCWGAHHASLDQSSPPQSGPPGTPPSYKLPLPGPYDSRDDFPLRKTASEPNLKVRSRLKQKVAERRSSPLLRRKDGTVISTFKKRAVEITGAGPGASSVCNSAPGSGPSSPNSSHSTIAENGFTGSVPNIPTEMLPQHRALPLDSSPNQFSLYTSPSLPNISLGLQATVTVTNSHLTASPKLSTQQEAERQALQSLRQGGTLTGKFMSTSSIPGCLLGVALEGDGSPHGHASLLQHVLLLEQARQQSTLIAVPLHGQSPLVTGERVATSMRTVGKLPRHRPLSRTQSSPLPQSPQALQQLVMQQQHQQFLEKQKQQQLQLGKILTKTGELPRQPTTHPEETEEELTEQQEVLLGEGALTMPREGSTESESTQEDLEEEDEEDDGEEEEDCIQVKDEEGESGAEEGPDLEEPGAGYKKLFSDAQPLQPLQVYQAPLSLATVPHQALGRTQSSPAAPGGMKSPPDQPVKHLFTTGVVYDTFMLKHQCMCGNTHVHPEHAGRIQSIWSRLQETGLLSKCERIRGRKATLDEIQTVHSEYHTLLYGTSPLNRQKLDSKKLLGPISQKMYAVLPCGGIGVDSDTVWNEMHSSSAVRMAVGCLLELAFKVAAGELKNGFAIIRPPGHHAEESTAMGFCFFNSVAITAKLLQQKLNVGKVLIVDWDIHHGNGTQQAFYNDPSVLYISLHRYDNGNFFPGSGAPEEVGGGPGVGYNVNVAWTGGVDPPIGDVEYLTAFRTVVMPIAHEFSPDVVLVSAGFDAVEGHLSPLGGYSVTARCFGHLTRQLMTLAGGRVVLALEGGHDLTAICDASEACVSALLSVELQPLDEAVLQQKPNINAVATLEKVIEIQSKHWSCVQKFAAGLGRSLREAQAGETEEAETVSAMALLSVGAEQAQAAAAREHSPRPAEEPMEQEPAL
Sequence of HDAC4 (P56524 whole entry, species assumed): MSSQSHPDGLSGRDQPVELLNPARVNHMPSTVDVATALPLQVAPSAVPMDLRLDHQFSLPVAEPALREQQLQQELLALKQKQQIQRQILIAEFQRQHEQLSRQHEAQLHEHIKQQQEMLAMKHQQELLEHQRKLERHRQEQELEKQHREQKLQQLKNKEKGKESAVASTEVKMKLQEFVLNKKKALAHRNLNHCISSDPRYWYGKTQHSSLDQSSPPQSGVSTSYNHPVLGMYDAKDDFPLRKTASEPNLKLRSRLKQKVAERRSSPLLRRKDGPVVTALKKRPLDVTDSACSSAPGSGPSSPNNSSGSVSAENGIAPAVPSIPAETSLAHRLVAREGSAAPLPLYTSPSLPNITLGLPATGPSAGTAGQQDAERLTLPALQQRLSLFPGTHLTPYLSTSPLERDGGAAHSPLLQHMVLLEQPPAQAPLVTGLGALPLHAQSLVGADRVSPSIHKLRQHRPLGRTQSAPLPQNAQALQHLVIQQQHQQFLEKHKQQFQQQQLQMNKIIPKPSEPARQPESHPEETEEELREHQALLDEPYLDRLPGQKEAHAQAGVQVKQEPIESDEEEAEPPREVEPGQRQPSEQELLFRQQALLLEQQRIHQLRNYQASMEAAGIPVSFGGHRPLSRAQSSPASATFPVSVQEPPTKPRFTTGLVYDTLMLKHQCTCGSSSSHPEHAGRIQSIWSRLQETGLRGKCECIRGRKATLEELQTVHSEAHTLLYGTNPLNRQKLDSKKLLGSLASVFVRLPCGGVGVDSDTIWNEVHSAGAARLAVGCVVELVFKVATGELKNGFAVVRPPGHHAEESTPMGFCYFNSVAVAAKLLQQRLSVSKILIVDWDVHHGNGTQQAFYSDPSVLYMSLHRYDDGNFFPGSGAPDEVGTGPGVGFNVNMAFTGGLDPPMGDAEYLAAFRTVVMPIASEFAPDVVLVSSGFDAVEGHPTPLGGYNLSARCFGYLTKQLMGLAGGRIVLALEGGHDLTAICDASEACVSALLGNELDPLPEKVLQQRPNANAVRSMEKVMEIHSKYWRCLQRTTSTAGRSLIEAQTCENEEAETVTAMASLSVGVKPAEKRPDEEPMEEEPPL
Sequence of HDAC3 (O15379 whole entry, species assumed): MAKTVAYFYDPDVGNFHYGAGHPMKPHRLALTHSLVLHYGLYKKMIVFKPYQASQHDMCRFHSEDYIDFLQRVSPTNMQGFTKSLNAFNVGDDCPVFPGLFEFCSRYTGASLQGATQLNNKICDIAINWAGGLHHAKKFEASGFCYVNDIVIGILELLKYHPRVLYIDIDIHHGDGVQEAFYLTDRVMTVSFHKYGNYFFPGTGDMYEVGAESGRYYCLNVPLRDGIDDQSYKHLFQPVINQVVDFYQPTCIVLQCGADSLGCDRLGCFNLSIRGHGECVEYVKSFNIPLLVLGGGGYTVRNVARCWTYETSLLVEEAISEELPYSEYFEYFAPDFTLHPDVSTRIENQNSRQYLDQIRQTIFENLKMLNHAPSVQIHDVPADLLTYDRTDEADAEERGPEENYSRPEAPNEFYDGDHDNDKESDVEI
Sequence of HDAC3 (Q9Y618 395-489 partner limits assumed, species assumed): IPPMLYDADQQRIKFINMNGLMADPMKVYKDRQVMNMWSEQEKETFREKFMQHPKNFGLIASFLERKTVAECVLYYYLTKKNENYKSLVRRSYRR
Sequence of HDAC2 (Q92769 whole entry, species assumed): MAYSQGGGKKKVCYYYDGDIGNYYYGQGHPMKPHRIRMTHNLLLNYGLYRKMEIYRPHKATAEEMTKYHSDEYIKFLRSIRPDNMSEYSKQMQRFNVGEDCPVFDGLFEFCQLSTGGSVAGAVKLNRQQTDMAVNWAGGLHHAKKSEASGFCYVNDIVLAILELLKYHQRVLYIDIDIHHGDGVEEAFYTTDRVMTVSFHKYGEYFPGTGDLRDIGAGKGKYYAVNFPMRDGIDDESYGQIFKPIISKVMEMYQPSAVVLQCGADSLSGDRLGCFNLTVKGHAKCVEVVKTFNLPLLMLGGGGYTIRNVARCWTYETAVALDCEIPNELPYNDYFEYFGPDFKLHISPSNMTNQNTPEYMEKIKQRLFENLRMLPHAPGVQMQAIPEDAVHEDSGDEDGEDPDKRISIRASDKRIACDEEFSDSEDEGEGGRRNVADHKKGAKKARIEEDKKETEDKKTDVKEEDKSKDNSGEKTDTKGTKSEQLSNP

For `CN1CCN(C(=O)N(CCCCCCC(=O)NO)c2ccc(-c3ccc4cnn(C)c4c3)cc2)CC1` [CKD-581, reference compound], the IC50 – broadly, the concentration that inhibits the measured activity by half – came to 1680 nM in assay [1]; 0.673 nM in assay [2] (setting [8]); 0.693 nM in assay [3]; 1.09 nM in assay [4]; 86.1 nM in assay [5]; 1.58 nM in assay [6]. Moreover, the IC50 in assay [7] (setting [9]) stood at 2.39 nM.
Take `O=C(NO)c1ccc(Cn2c3c(c4ccccc42)C(=O)C(CN2CCOCC2)CC3)cc1` (centres unmarked) [Compound 87, N-hydroxy-4-((3-(morpholinomethyl)-4-oxo-1,2,3,4-tetrahydrocarbazol-9-yl)methyl)benzamide]: the IC50 is 934 nM in assay [1]; 3070 nM in assay [2] (setting [10]); 11200 nM in assay [2] (data of Table 11, read-out: IC50 against HDAC1); 5080 nM in assay [4]; 1280 nM in assay [5]; 13.1 nM in assay [7] (setting [9]). Also, the IC50 worked out at 7.45 nM in assay [7] (setting [11]) and 13 nM in assay [7] (data of Table 11, read-out: IC50 against HDAC6). For the same compound, the “Selectivity for HDAC6, HD1/HD6” value in assay [7] (Table 12) was 411.8. Further, the “selectivity for HDAC6 over HDAC1” value in assay [7] (from the data of Table 11) was “more than 800 times”.
Regarding `CN1CCN(CC2CCc3c(c4cc(F)ccc4n3Cc3ccc(C(=O)NO)cc3)C2=O)CC1` (centres unmarked) [Compound 142, 4-((6-fluoro-3-((4-methylpiperazin-1-yl)methyl)-4-oxo-1,2,3,4-tetrahydrocarbazol-9-yl)methyl)-N-hydroxybenzamide], the IC50 in assay [1] was 2210 nM; in assay [2] (setting [8]) it was 12200 nM; in assay [2] (setting [10]), 2650 nM; in assay [4] it was 4270 nM; in assay [5], 1060 nM; in assay [7] (setting [9]) it was 3.55 nM. For the same compound, in assay [7] (setting [11]), the IC50 came to 4.7 nM. Moreover, in assay [7] (Table 12), the “Selectivity for HDAC6, HD1/HD6” value came out at 568.3.
On to `CC1(C)CC(=O)c2c(C(F)(F)F)nn(Cc3ccc(C(=O)NO)cc3)c2C1` [Compound 237, 4-((6,6-dimethyl-4-oxo-3-(trifluoromethyl)-4,5,6,7-tetrahydro-1H-indazol-1-yl)methyl)-N-hydroxybenzamide], for which the half-inhibitory concentration (IC50) was determined as 4990 nM in assay [1]; 3910 nM in assay [2] (setting [10]); 16000 nM in assay [4]; 3930 nM in assay [5]; 32.2 nM in assay [7] (setting [9]); 17.8 nM in assay [7] (setting [11]). In addition, the “Selectivity for HDAC6, HD1/HD6” value in assay [7] (Table 12) is on record as 219.3. For the same compound, the “selectivity for HDAC6 over HDAC1” value in assay [7] (from the data of Table 12) is reported as “more than 219 times”.
For the compound `O=C(NO)c1ccc(Cn2c3c(c4ccccc42)C(=O)N(CCN2CCOCC2)CC3)cc1` [Compound 249, N-hydroxy-4-((2-(2-morpholinoethyl)-1-oxo-1,2,3,4-tetrahydropyrido[4,3-b]indol-5-yl)methyl)benzamide], the IC50 came out at 255 nM in assay [1]; 8470 nM in assay [2] (setting [8]); 3460 nM in assay [2] (setting [10]); 4620 nM in assay [4]; 220 nM in assay [5]; 5.09 nM in assay [7] (setting [9]). In addition, the concentration for half-maximal inhibition (IC50) in assay [7] (setting [11]) was 21.3 nM. Moreover, the “Selectivity for HDAC6, HD1/HD6” value in assay [7] (Table 12) was 162.2.
